Source: patent US12371454B2, “Cyclic peptide compound having Kras inhibitory action” (priority 2019, dated 2025)
Starred links: 1 amine or outer side, 2 acyl side, 3 side chain; linkers in the order of their positions; H or OH if unused. Positions of bridges follow the written chain, without caps; N, C: chain ends. Non-standard residues stand in square brackets, D forms with d. Residues, ends and D or L forms follow the SMILES beside them. *: point of attachment. NMeAbu(3,3-F2-piperidino) = CN[C@@H](CCN1CCCC(F)(F)C1)C(=O)O; hPhe(3-Cl-4-CF3) = N[C@@H](CCc1ccc(C(F)(F)F)c(Cl)c1)C(=O)O; hPhe(3-F,4-CF3) = N[C@@H](CCc1ccc(C(F)(F)F)c(F)c1)C(=O)O; hPhe(3,4-Cl2) = N[C@@H](CCc1ccc(Cl)c(Cl)c1)C(=O)O; NMeAbu(4,4,4-F3) = CN[C@@H](CC(F)(F)F)C(=O)O; NMePhe(4-Cl) = CN[C@@H](Cc1ccc(Cl)cc1)C(=O)O; NMePhe(4-Me) = CN[C@@H](Cc1ccc(C)cc1)C(=O)O; NMedβ3hAla = C[C@H](CC(=O)[*:2])N(C)[*:1]; NMeGly(cBu) = CN[C@H](C(=O)O)C1CCC1; NMeCha = CN[C@@H](CC1CCCCC1)C(=O)O; NMeChg = CN[C@H](C(=O)O)C1CCCCC1; NMeI = CC[C@H](C)[C@H](NC)C(=O)O; NMeT = CN[C@H](C(=O)O)[C@@H](C)O; NMeD = CN[C@@H](CC(=O)O)C(=O)O; NMeL = CN[C@@H](CC(C)C)C(=O)O; NPrAla = CCCN[C@@H](C)C(=O)O; NMeV = CN[C@H](C(=O)O)C(C)C; d(β3hA) = C[C@@H](N)CC(=O)O; NMeS = CN[C@@H](CO)C(=O)O; Morpholide = C1CN(*)CCO1; NMeA = CN[C@@H](C)C(=O)O; Piperidide = C1CCN(*)CC1; Pyrrolidide = C1CCN(*)C1; Ac5c = NC1(C(=O)O)CCCC1; Aze = O=C(O)[C@@H]1CCN1; Ac4c = NC1(C(=O)O)CCC1; Sar = CNCC(=O)O; Propyl = CCC*

Assays:
[1] = test system: Human pancreatic cancer cell line AsPC-1; experiment: Measurement of AsPC-1 cell growth inhibition (AsPC-1 CGI); format: cell-based; settings: 96 h
How it was run: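 AsPC-1 cells in 15% FBS RPMI-1640 were exposed to test compound for 96 hours at 37° C, with CellTiter-Glo as endpoint.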

[2] = molecular target: T1, Kras and SOS1 (biotin-tagged human Kras loaded with GDP, His-tagged human SOS1) (Homo sapiens, UniProt P01116, G12D); experiment: Protein-protein interaction inhibition between Kras and SOS1 (KrasGl2D-SOS PPI) using AlphaScreen; format: binding; settings: AlphaScreen; biotin-tagged human Kras loaded with GDP, His-tagged human SOS1; read-out: KRAS G12D-SOS PPI IC50
T1 construct: made in house; host or cells: E. coli (stated for Kras only)
T1 sequence (P01116 1-188 isoform P01116-2 G12D): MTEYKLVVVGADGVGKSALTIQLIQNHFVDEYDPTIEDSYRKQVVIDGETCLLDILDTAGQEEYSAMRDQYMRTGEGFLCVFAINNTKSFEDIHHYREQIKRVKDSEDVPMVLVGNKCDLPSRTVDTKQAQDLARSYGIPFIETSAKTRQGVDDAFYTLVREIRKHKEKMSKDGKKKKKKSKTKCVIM
How it was run: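 Read-out is acceptor-bead light at 520-620 nm, arising when 680 nm-irradiated nickel donor beads pass singlet oxygen to streptavidin acceptors. The bead pair links His-tagged SOS1 with biotin-tagged, GDP-bound Kras from E. coli.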

CC[C@H](C)[C@@H]1NC(=O)[C@H](CC(C)C)N(C)C(=O)C[C@@H](C(=O)N2CCCC2)N(C)C(=O)[C@H](C(C)C)N(C)C(=O)C2(CCCC2)NC(=O)[C@@H]2CCCN2C(=O)[C@H](CCc2ccc(C(F)(F)F)c(F)c2)NC(=O)CN(C)C(=O)[C@H](CC2CCCCC2)N(C)C(=O)CN(C)C(=O)CN(C)C1=O [Compound 804] ([NMeL]I[Sar][Sar][NMeCha][Sar][hPhe(3-F,4-CF3)]P[Ac5c][NMeV][NMeD]-Pyrrolidide; lactam N-11)
IC50 [1]: 100 to 500 nM | IC50 [2]: 0.99 nM

CCCOC[C@H]1C(=O)N2CC[C@H]2C(=O)N(C)[C@@H](CC2CCCCC2)C(=O)N(C)CC(=O)N[C@@H](CCc2ccc(C(F)(F)F)c(Cl)c2)C(=O)N2CCC[C@H]2C(=O)NC2(CCCC2)C(=O)N(C)[C@@H](C(C)C)C(=O)N(C)[C@H](C(=O)N2CCCCC2)CC(=O)N(C)[C@@H](CC(C)C)C(=O)N[C@@H]([C@@H](C)CC)C(=O)N1C [Compound 809] ([NMeL]I[NMeS](Propyl)[Aze][NMeCha][Sar][hPhe(3-Cl-4-CF3)]P[Ac5c][NMeV][NMeD]-Piperidide; lactam N-11)
IC50 [1]: 100 to 500 nM | IC50 [2]: 47 nM

CC[C@H](C)[C@@H]1NC(=O)[C@H](CC(F)(F)F)N(C)C(=O)C[C@@H](C(=O)N2CCCC2)N(C)C(=O)[C@H](C2CCCCC2)N(C)C(=O)C2(CCCC2)NC(=O)[C@@H]2CCCN2C(=O)[C@H](CCc2ccc(C(F)(F)F)c(Cl)c2)NC(=O)CN(C)C(=O)[C@H](Cc2ccc(C)cc2)N(C)C(=O)CN(C)C(=O)CN(C)C1=O [Compound 814] ([NMeAbu(4,4,4-F3)]I[Sar][Sar][NMePhe(4-Me)][Sar][hPhe(3-Cl-4-CF3)]P[Ac5c][NMeChg][NMeD]-Pyrrolidide; lactam N-11)
IC50 [1]: 20 to 50 nM | IC50 [2]: 0.41 nM

CC[C@H](C)[C@@H]1NC(=O)[C@H](C2CCC2)N(C)C(=O)C[C@@H](C)NC(=O)[C@H](C(C)C)N(C)C(=O)C2(CCCC2)NC(=O)[C@@H]2CCCN2C(=O)[C@H](CCc2ccc(C(F)(F)F)c(Cl)c2)NC(=O)CN(C)C(=O)[C@H](CC2CCCCC2)N(C)C(=O)CN(C)C(=O)CN(C)C1=O [Compound 815] (cyclo([Ac5c][NMeV][d(β3hA)][NMeGly(cBu)]I[Sar][Sar][NMeCha][Sar][hPhe(3-Cl-4-CF3)]P))
IC50 [1]: 100 to 500 nM | IC50 [2]: 26 nM

CC[C@H](C)[C@@H]1NC(=O)[C@H](CC(C)C)N(C)C(=O)C[C@@H](C(=O)N(C)C)N(C)C(=O)[C@H]([C@@H](C)CC)N(C)C(=O)C2(CCCC2)NC(=O)[C@H](CCN2CCCC(F)(F)C2)N(C)C(=O)[C@H](CCc2ccc(C(F)(F)F)c(Cl)c2)NC(=O)CN(C)C(=O)[C@H](Cc2ccc(C)cc2)N(C)C(=O)[C@@H]2CCN2C(=O)[C@H](C)N(C)C1=O [Compound 818] ([NMeL]I[NMeA][Aze][NMePhe(4-Me)][Sar][hPhe(3-Cl-4-CF3)][NMeAbu(3,3-F2-piperidino)][Ac5c][NMeI][NMeD]-NMe2; lactam N-11)
IC50 [1]: 20 to 50 nM | IC50 [2]: 1.2 nM

CC[C@H](C)[C@@H]1NC(=O)[C@H]([C@@H](C)OC)N(C)C(=O)C[C@@H](C(=O)N2CCCCC2)N(C)C(=O)[C@H](C2CCCCC2)N(C)C(=O)C2(CCCC2)NC(=O)[C@@H]2CCCN2C(=O)[C@H](CCc2ccc(C(F)(F)F)c(Cl)c2)NC(=O)CN(C)C(=O)[C@H](CC2CCCCC2)N(C)C(=O)CN(C)C(=O)CN(C)C1=O [Compound 820] ([NMeT](Me)I[Sar][Sar][NMeCha][Sar][hPhe(3-Cl-4-CF3)]P[Ac5c][NMeChg][NMeD]-Piperidide; lactam N-11)
IC50 [1]: 50 to 100 nM | IC50 [2]: 0.73 nM

CCCN1C(=O)C[C@@H](C)N(C)C(=O)[C@H](C(C)C)N(C)C(=O)C2(CCCC2)NC(=O)[C@@H]2CCCN2C(=O)[C@H](CCc2ccc(C(F)(F)F)c(Cl)c2)NC(=O)CN(C)C(=O)[C@H](CC2CCCCC2)N(C)C(=O)CN(C)C(=O)CN(C)C(=O)[C@H]([C@@H](C)CC)NC(=O)[C@@H]1C [Compound 824] (cyclo([Ac5c][NMeV][NMedβ3hAla][NPrAla]I[Sar][Sar][NMeCha][Sar][hPhe(3-Cl-4-CF3)]P))
IC50 [1]: 100 to 500 nM | IC50 [2]: 5.6 nM

CC[C@H](C)[C@@H]1NC(=O)[C@H](C)N(C)C(=O)C[C@@H](C(=O)N2CCCCC2)N(C)C(=O)[C@H](C2CCCCC2)N(C)C(=O)C2(CCCC2)NC(=O)[C@@H]2CCCN2C(=O)[C@H](CCc2ccc(Cl)c(Cl)c2)NC(=O)CN(C)C(=O)[C@H](CC2CCCCC2)N(C)C(=O)CN(C)C(=O)CN(C)C1=O [Compound 825] ([NMeA]I[Sar][Sar][NMeCha][Sar][hPhe(3,4-Cl2)]P[Ac5c][NMeChg][NMeD]-Piperidide; lactam N-11)
IC50 [1]: 50 to 100 nM | IC50 [2]: 0.35 nM

CC[C@H](C)[C@@H]1NC(=O)[C@H](CC(C)C)N(C)C(=O)C[C@@H](C)N(C)C(=O)[C@H](C(C)C)N(C)C(=O)C2(CCC2)NC(=O)[C@@H]2CCCN2C(=O)[C@H](CCc2ccc(C(F)(F)F)c(Cl)c2)NC(=O)CN(C)C(=O)[C@H](CC2CCCCC2)N(C)C(=O)CN(C)C(=O)CN(C)C1=O [Compound 837] (cyclo([Ac4c][NMeV][NMedβ3hAla][NMeL]I[Sar][Sar][NMeCha][Sar][hPhe(3-Cl-4-CF3)]P))
IC50 [1]: 50 to 100 nM | IC50 [2]: 6 nM

CC[C@H](C)[C@@H]1NC(=O)[C@H](CC(C)C)N(C)C(=O)C[C@@H](C(=O)N(C)C)N(C)C(=O)[C@H]([C@@H](C)CC)N(C)C(=O)C2(CCCC2)NC(=O)[C@H](Cc2ccc(Cl)cc2)N(C)C(=O)[C@H](CCc2ccc(C(F)(F)F)c(Cl)c2)NC(=O)CN(C)C(=O)[C@H](Cc2ccc(C)cc2)N(C)C(=O)[C@@H]2CCN2C(=O)[C@H](C)N(C)C1=O [Compound 838] ([NMeL]I[NMeA][Aze][NMePhe(4-Me)][Sar][hPhe(3-Cl-4-CF3)][NMePhe(4-Cl)][Ac5c][NMeI][NMeD]-NMe2; lactam N-11)
IC50 [1]: 100 to 500 nM | IC50 [2]: 10 nM

CC[C@H](C)[C@@H]1NC(=O)[C@H](CC(C)C)N(C)C(=O)C[C@@H](C)N(C)C(=O)[C@H](C2CCC2)N(C)C(=O)C2(CCCC2)NC(=O)[C@@H]2CCCN2C(=O)[C@H](CCc2ccc(C(F)(F)F)c(Cl)c2)NC(=O)CN(C)C(=O)[C@H](CC2CCCCC2)N(C)C(=O)CN(C)C(=O)CN(C)C1=O [Compound 845] (cyclo([Ac5c][NMeGly(cBu)][NMedβ3hAla][NMeL]I[Sar][Sar][NMeCha][Sar][hPhe(3-Cl-4-CF3)]P))
IC50 [1]: 50 to 100 nM | IC50 [2]: 8.2 nM

CC[C@H](C)[C@@H]1NC(=O)[C@H](C2CCCCC2)N(C)C(=O)C[C@@H](C(=O)N2CCCCC2)N(C)C(=O)[C@H](C2CCCCC2)N(C)C(=O)C2(CCCC2)NC(=O)[C@@H]2CCCN2C(=O)[C@H](CCc2ccc(C(F)(F)F)c(Cl)c2)NC(=O)CN(C)C(=O)[C@H](CC2CCCCC2)N(C)C(=O)CN(C)C(=O)CN(C)C1=O [Compound 849] ([NMeChg]I[Sar][Sar][NMeCha][Sar][hPhe(3-Cl-4-CF3)]P[Ac5c][NMeChg][NMeD]-Piperidide; lactam N-11)
IC50 [1]: 100 to 500 nM | IC50 [2]: 1.9 nM

CCCOC[C@H]1C(=O)N(C)CC(=O)N[C@@H](CCc2ccc(C(F)(F)F)c(Cl)c2)C(=O)N2CCC[C@H]2C(=O)NC2(CCCC2)C(=O)N(C)[C@@H](C2CCCCC2)C(=O)N(C)[C@H](C(=O)N2CCOCC2)CC(=O)N(C)[C@@H](C2CCC2)C(=O)N[C@@H]([C@@H](C)CC)C(=O)N(C)CC(=O)N(C)CC(=O)N1C [Compound 853] ([NMeGly(cBu)]I[Sar][Sar][NMeS](Propyl)[Sar][hPhe(3-Cl-4-CF3)]P[Ac5c][NMeChg][NMeD]-Morpholide; lactam N-11)
IC50 [1]: 100 to 500 nM | IC50 [2]: 0.62 nM
